These results are taken from patent US20160046610A1, “3-HETEROARYL SUBSTITUTED INDAZOLES” (BAYER PHARMA AKTIENGESELLSCHAFT, priority 2013, published 2016).

For assay [1], the system named is HeLa cell line. Kind of assay: Proliferation assay (HeLa cell line), crystal violet staining. It counts as cell-based. As to conditions: Homo sapiens, 96 h, read-out: Biological Assay 2: Proliferation assay (HeLa cell line) median IC50. As to the method: Cultivated tumor cells (cells were ordered from ATCC, except HeLa-MaTu and HeLa-MaTu-ADR, which were ordered from EPO-GmbH, Berlin) were plated at a density of 1000 to 5000 cells/well, depending on the growth rate of the respective cell line, in a 96-well multititer plate in 200 μL of their respective growth medium supplemented 10% fetal calf serum. After 24 hours, the cells of one plate (zero-point plate) were stained with crystal violet (see below), while the medium of the other plates was replaced by fresh culture medium (200 μL), to which the test substances were added in various concentrations (0 μM, as well as in the range of 0.001-10 μM; the final concentration of the solvent dimethyl sulfoxide was 0.5%). The cells were incubated for 4 days in the presence of test substances. Cell proliferation was determined by staining the cells with crystal violet: the cells were fixed by adding 20 μl/measuring point of an 11% glutaric aldehyde solution for 15 minutes at room temperature. After three washing cycles of the fixed cells with water, the plates were dried at room temperature. The cells were stained by adding 100 μl/measuring point of a 0.1% crystal violet solution (pH 3.0). After three washing cycles of the stained cells with water, the plates were dried at room temperature. The dye was dissolved by adding 100 μl/measuring point of a 10% acetic acid solution. Absorption was determined by photometry at a wavelength of 595 nm. The change of cell number, in percent, was calculated by normalization of the measured values to the absorption values of the zero-point plate (=0%) and the absorption of the untreated (0 μm) cells (=100%). The IC50 values were determined by means of a 4 parameter fit using the company's own software.

The target of assay [2] is T1, catalytic domain of human Bub1 (amino acids 704-1085) (Homo sapiens, UniProt O43683).
T1 construct: catalytic domain of human Bub1 (amino acids 704-1085); His6 (N); made in house; host or cells: Hi5 insect cells
T1 sequence (O43683 704-1085): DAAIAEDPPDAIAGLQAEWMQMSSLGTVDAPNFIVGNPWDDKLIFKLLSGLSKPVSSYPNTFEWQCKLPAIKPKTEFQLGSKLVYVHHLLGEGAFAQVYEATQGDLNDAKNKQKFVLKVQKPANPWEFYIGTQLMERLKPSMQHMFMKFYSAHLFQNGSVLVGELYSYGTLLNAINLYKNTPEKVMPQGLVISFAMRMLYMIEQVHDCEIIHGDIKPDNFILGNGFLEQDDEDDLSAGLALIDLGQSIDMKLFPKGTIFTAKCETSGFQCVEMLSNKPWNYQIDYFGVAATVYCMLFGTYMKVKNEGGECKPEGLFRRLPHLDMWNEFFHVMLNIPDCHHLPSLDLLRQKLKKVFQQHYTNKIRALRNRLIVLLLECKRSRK
Briefly: Bub1 kinase assay (TR-FRET). It counts as biochemical. As to the method: To this end, 100-fold concentrated compound solutions (in DMSO) were previously prepared by serial dilution (1:3.4) of 2 mM stocks in a clear low volume 384-well source microtiter plate (Greiner Bio-One, Frickenhausen, Germany), from which 50 nl of compounds were transferred into a black low volume test microtiter plate from the same supplier. […] The resulting mixture (5 μL final volume) was incubated at 22° C. during 60 min., and the reaction was stopped by the addition of 5 μL of an aqueous EDTA-solution (50 mM EDTA, in 100 mM HEPES pH 7.5 and 0.2% (w/v) bovine serum albumin) which also contained the TR-FRET detection reagents (0.2 μM streptavidin-XL665 [Cisbio Bioassays, Codolet, France] and 1 nM anti-phosho-Serine antibody [Merck Millipore, cat. #35-001] and 0.4 nM LANCE EU-W1024 labeled anti-mouse IgG antibody [Perkin-Elmer, product no. AD0077, alternatively a Terbium-cryptate-labeled anti-mouse IgG antibody from Cisbio Bioassays can be used]). The stopped reaction mixture was further incubated 1 h at 22° C. in order to allow the formation of complexes between peptides and detection reagents. Subsequently, the amount of product was evaluated by measurement of the resonance energy transfer from the Eu-chelate-antibody complex recognizing the Phosphoserine residue to the streptavidin-XL665 bound to the biotin moiety of the peptide. […] IC50 values were calculated by fitting the normalized inhibition data to a 4-parameter logistic equation (Minimum, Maximum, IC50, Hill; Y=Max+(Min−Max)/(1+(X/IC50)Hill)).

Setting [3] is: TR-FRET, recombinant catalytic domain of human Bub1, ATP 10 μM, peptide substrate 1 μM, median value, read-out: Biological Assay 1: Bub1 kinase assay median IC50.

Where two headings read alike, the source gives them in different places.

Consider `COc1ccc(Cn2nc(-c3ncc(OC)c(Nc4cn[nH]c4)n3)c3ccccc32)cc1` [Example 2-10-1, 5-methoxy-2-[1-(4-methoxybenzyl)-1H-indazol-3-yl]-N-(1H-pyrazol-4-yl)pyrimidin-4-amine], for which the figures for the IC50 in assay [1] (HeLa) and in assay [2] were 3.4 µM and 0.02 µM, respectively.

As to `CCOc1cc(F)c(Cn2nc(-c3ncc(OC)c(Nc4cn[nH]c4)n3)c3ccccc32)c(F)c1` [Example 2-10-2, 2-[1-(4-ethoxy-2,6-difluorobenzyl)-1H-indazol-3-yl]-5-methoxy-N-(1H-pyrazol-4-yl)pyrimidin-4-amine], the IC50 in assay [1] (HeLa) is > 10 µM; in assay [2] (setting [3]), 0.0047 µM.

For `Fc1ccc(Cn2nc(-c3cc(Nc4ccncn4)ccn3)c3ccccc32)c(F)c1` [Example 2-11-1, N-{2-[1-(2,4-difluorobenzyl)-1H-indazol-3-yl]-pyridin-4-yl}pyrimidin-4-amine], the IC50 was > 10 µM in assay [1] (HeLa cells, incubated for 4 days with test substance, crystal violet staining, median value) and 0.066 µM in assay [2].

As to `CCOc1cc(F)c(Cn2nc(-c3ncc(OC)c(Nc4ccccc4C(N)=O)n3)c3ccccc32)c(F)c1` [Example 2-12-1, 2-({2-[1-(4-ethoxy-2,6-difluorobenzyl)-1H-indazol-3-yl]-5-methoxypyrimidin-4-yl}amino)benzamide], the IC50 was > 10 µM in assay [1] (HeLa) and 0.92 µM in assay [2] (setting [3]).

Turning to `CCOc1cc(F)c(Cn2nc(-c3ncc(OC)c(Nc4ccccc4C(=O)NC)n3)c3ccccc32)c(F)c1` [Example 2-12-2, 2-({2-[1-(4-ethoxy-2,6-difluorobenzyl)-1H-indazol-3-yl]-5-methoxypyrimidin-4-yl}amino)-N-methylbenzamide], the IC50 in assay [1] (HeLa) and in assay [2] (setting [3]) was 1.1 µM in each case.

Regarding `CCOc1cc(F)c(Cn2nc(-c3ncc(OC)c(Nc4ccc(F)cc4C(=O)NC)n3)c3ccccc32)c(F)c1` [Example 2-12-3, 2-({2-[1-(4-ethoxy-2,6-difluorobenzyl)-1H-indazol-3-yl]-5-methoxypyrimidin-4-yl}amino)-5-fluoro-N-methylbenzamide], the figures for the IC50 in assay [1] (HeLa) and in assay [2] (setting [3]) were 1.2 µM and 6.8 µM, respectively.

As to `CCOc1cc(F)c(Cn2nc(-c3ncc(OC)c(Nc4ccc(F)cc4C(N)=O)n3)c3ccccc32)c(F)c1` [Example 2-12-4, 2-({2-[1-(4-ethoxy-2,6-difluorobenzyl)-1H-indazol-3-yl]-5-methoxypyrimidin-4-yl}amino)-5-fluorobenzamide], the IC50 in assay [1] (HeLa) is 2.4 µM; in assay [2] (setting [3]), 0.11 µM.
